{
  "source": "patent US10981908B2",
  "about": "“Aryl hydrocarbon receptor (AHR) modulator compounds” (PHENEX PHARMACEUTICALS AG, priority 2017, dated 2021)",
  "data": [
    {"target": "T1, AhR (Homo sapiens, UniProt P35869)", "T1 construct": "The HepG2 CYP1A1-Luc cells do express basal luciferase activity that can be increased via potent AhR agonists or decreased via potent AhR antagonists; endogenous in cells", "T1 sequence (P35869 11-848)": "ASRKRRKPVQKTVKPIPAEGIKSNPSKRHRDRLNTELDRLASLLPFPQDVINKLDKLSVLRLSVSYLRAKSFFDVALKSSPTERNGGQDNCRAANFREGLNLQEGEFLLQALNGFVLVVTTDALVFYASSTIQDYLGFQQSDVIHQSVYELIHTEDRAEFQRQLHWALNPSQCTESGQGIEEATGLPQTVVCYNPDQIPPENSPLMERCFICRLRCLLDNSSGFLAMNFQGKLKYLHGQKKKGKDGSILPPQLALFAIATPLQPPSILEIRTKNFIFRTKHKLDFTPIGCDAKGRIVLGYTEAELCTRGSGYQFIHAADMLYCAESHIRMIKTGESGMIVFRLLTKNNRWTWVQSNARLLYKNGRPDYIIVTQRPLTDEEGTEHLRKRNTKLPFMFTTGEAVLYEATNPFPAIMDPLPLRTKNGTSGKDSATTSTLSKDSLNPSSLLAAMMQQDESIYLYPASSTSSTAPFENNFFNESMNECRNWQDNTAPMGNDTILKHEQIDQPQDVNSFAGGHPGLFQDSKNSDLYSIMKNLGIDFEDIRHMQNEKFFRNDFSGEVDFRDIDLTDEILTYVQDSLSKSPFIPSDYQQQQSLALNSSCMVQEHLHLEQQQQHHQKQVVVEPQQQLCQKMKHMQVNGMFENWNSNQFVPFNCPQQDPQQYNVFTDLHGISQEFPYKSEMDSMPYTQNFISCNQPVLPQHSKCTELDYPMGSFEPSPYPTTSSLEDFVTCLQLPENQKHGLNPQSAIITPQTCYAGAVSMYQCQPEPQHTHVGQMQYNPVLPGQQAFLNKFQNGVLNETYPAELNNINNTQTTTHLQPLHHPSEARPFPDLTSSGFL", "experiment": "AhR direct luciferase reporter assay in HepG2 cells (HepG2 CYP1A1-LUC)", "format": "cell-based", "details": "luciferase activity after 18 hours, medium with no exogenous AhR agonist or 10 nM VAF347, read-out: AhR potency (AhR antagonistic potency, IC50 class)", "excerpt": "AhR Direct Luciferase Reporter Assay in HepG2 Cells\nA stable cell line (HepG2 CYP1A1-LUC) was used in which part of the promoter region of the human CYP1A1 gene is stably integrated into the genome of human HepG2 hepatocytes (DSZM #ACC 180) in front of a Photinus pyralis Firefly Luciferase gene. A 1210 bp fragment comprising part of the human CYP1A1 promoter was isolated via SacI and BgIII restriction digestion from Lightswitch Clone S714555 (SwitchGearGenomics) and inserted between the SacI and BgIII sites in pGL4.30 (Promega #E8481) in front of the Firefly Luciferase gene. The resulting vector was linearized with NotI, transfected into HepG2 cells (DSMZ #ACC 180) and stably transfected clones selected with 250 μg/ml Hygromycin B. After repetitive rounds of subcloning and testing for robustly regulated luciferase activity after AhR agonist stimulation, a stable clonal HepG2 CYP1A1-Luc cell line was selected.\nThe HepG2 CYP1A1-Luc cells do express basal luciferase activity that can be increased via potent AhR agonists or decreased via potent AhR antagonists, added to the growth medium of the cells.\nIn typical reporter assays performed with this cell line, cells are grown in 96-well plates and AhR modulators are titrated into the growth medium in serial dilutions in RPMI-1640 Medium (Sigma #R7509) supplemented with 8,6% fetal calf serum (Sigma #F7524) and containing either no exogenous AhR agonist or 10 nM of the potent AhR agonist VAF347 (Calbiochem #182690). Cells are further cultivated for 18 hours and luciferase activities are determined from extracts of cells in buffers containing D-Luciferine and ATvP using a LUMIstar Optima microplate Luminometer from BMG Labtech.", "units": {"IC50": "µM"}, "values": [
      {"compound": "Cn1ncnc1C(=O)Nc1ccc2cc(-c3ccccc3C(=O)O)[nH]c2n1", "note": "[Example 6, 2-(6-(1-Methyl-1H-1,2,4-triazole-5-carboxamido)-1H-pyrrolo[2,3-b]pyridin-2-yl)benzoic acid]", "IC50": "> 1"},
      {"compound": "Cn1ncnc1C(=O)Nc1ccc2cc(-c3ccccc3C(N)=O)[nH]c2n1", "note": "[Example 7, N-(2-(2-Carbamoylphenyl)-1H-pyrrolo[2,3-b]pyridin-6-yl)-1-methyl-1H-1,2,4-triazole-5-carboxamide]", "IC50": "0.1 to 1"},
      {"compound": "Cn1ncnc1C(=O)Nc1ccc2cc(-c3cc(C4CC4)ccc3C(F)(F)F)[nH]c2n1", "note": "[Example 1/27, N-(2-(5-Cyclopropyl-2-(trifluoromethyl)phenyl)-1H-pyrrolo[2,3-b]pyridin-6-yl)-1-methyl-1H-1,2,4-triazole-5-carboxamide]", "IC50": "< 0.1"},
      {"compound": "Cn1ncnc1C(=O)Nc1ccc2c(C#N)c(-c3ccccc3C(F)F)[nH]c2n1", "note": "[Example 14, N-(3-Cyano-2-(2-(difluoromethyl)phenyl)-1H-pyrrolo[2,3-b]pyridin-6-yl)-1-methyl-1H-1,2,4-triazole-5-carboxamide]", "IC50": "< 0.1"},
      {"compound": "Cn1ncnc1C(=O)Nc1ccc2cc(-c3cc(F)ccc3C#N)[nH]c2n1", "note": "[4/3]", "IC50": "0.1 to 1"},
      {"compound": "Cc1ccc(C(F)(F)F)c(-c2cc3ccc(NC(=O)c4ncnn4C)nc3[nH]2)c1", "note": "[Example 1/33, 1-Methyl-N-(2-(5-methyl-2-(trifluoromethyl)phenyl)-1H-pyrrolo[2,3-b]pyridin-6-yl)-1H-1,2,4-triazole-5-carboxamide]", "IC50": "< 0.1"},
      {"compound": "Cn1ncnc1C(=O)Nc1ccc2cc(-c3ccoc3C(F)F)[nH]c2n1", "note": "[Example 1/32, N-(2-(2-(Difluoromethyl)furan-3-yl)-1H-pyrrolo[2,3-b]pyridin-6-yl)-1-methyl-1H-1,2,4-triazole-5-carboxamide]", "IC50": "< 0.1"},
      {"compound": "Cn1ncnc1C(=O)Nc1ccc2cc(-c3cc(Cl)ccc3C(F)(F)F)[nH]c2n1", "note": "[Example 1/26, N-(2-(5-Chloro-2-(trifluoromethyl)phenyl)-1H-pyrrolo[2,3-b]pyridin-6-yl)-1-methyl-11H-1,2,4-triazole-5-carboxamide]", "IC50": "< 0.1"},
      {"compound": "Cn1ncnc1C(=O)Nc1ccc2cc(-c3cc(C#N)ccc3C(F)(F)F)[nH]c2n1", "note": "[4/8]", "IC50": "< 0.1"},
      {"compound": "Cc1ccc(C(F)F)c(-c2cc3ccc(NC(=O)c4ncnn4C)nc3[nH]2)c1", "note": "[Example 1/35, N-(2-(2-(Difluoromethyl)-5-methylphenyl)-1H-pyrrolo[2,3-b]pyridin-6-yl)-1-methyl-1H-1,2,4-triazole-5-carboxamide]", "IC50": "< 0.1"},
      {"compound": "CCc1ccccc1-c1cc2ccc(NC(=O)c3ncnn3C)nc2[nH]1", "note": "[4/1]", "IC50": "< 0.1"},
      {"compound": "Cn1nc(C(N)=O)cc1C(=O)Nc1ccc2cc(-c3ccccc3C(F)(F)F)[nH]c2n1", "note": "[Example 2, 1-Methyl-n^5-(2-(2-(trifluoromethyl)phenyl)-1H-pyrrolo[2,3-b]pyridin-6-yl)-1H-pyrazole-3,5-dicarboxamide]", "IC50": "0.1 to 1"},
      {"compound": "Cn1ncnc1C(=O)Nc1ccc2cc(-c3cccc(F)c3C(F)(F)F)[nH]c2n1", "note": "[Example 1/11, N-(2-(3-Fluoro-2-(trifluoromethyl)phenyl)-1H-pyrrolo[2,3-b]pyridin-6-yl)-1-methyl-1H-1,2,4-triazole-5-carboxamide]", "IC50": "< 0.1"},
      {"compound": "CCc1ccc(C(F)(F)F)c(-c2cc3ccc(NC(=O)c4ncnn4C)nc3[nH]2)c1", "note": "[Example 1/29, N-(2-(5-Ethyl-2-(trifluoromethyl)phenyl)-1H-pyrrolo[2,3-b]pyridin-6-yl)-1-methyl-1H-1,2,4-triazole-5-carboxamide]", "IC50": "< 0.1"},
      {"compound": "O=C(Nc1ccc2cc(-c3ccccc3C(F)(F)F)[nH]c2n1)c1ccccc1F", "note": "[Example 1/8, 2-Fluoro-N-(2-(2-(trifluoromethyl)phenyl)-1H-pyrrolo[2,3-b]pyridin-6-yl)benzamide]", "IC50": "< 0.1"},
      {"compound": "Cn1ncnc1C(=O)Nc1ccc2cc(-c3cccc4c3CCC4)[nH]c2n1", "note": "[Example 1/16, N-(2-(2,3-Dihydro-1H-inden-4-yl)-1H-pyrrolo[2,3-b]pyridin-6-yl)-1-methyl-1H-1,2,4-triazole-5-carboxamide]", "IC50": "< 0.1"},
      {"compound": "O=C(Nc1ccc2cc(-c3ccccc3C(F)(F)F)[nH]c2n1)c1ccc(F)cc1", "note": "[Example 1/9, 4-Fluoro-N-(2-(2-(trifluoromethyl)phenyl)-1H-pyrrolo[2,3-b]pyridin-6-yl)benzamide]", "IC50": "< 0.1"},
      {"compound": "Cn1ncnc1C(=O)Nc1ccc2cc(-c3ccc(C(=O)O)cc3)[nH]c2n1", "note": "[Example 12/1, 4-(6-(1-Methyl-1H-1,2,4-triazole-5-carboxamido)-1H-pyrrolo[2,3-b]pyridin-2-yl)benzoic Acid]", "IC50": "> 1"},
      {"compound": "Cn1ncnc1C(=O)Nc1ccc2cc(-c3cc(Cl)ccc3C(F)F)[nH]c2n1", "note": "[Example 1/34, N-(2-(5-Chloro-2-(difluoromethyl)phenyl)-1H-pyrrolo[2,3-b]pyridin-6-yl)-1-methyl-1H-1,2,4-triazole-5-carboxamide]", "IC50": "< 0.1"},
      {"compound": "CCn1ncnc1C(=O)Nc1ccc2cc(-c3ccccc3C(F)F)[nH]c2n1", "note": "[4/7]", "IC50": "< 0.1"},
      {"compound": "Cn1ncnc1C(=O)Nc1ccc2cc(-c3ccccc3C(F)(F)F)n(C)c2n1", "note": "[Example 3, 1-Methyl-N-(1-methyl-2-(2-(trifluoromethyl)phenyl)-1H-pyrrolo[2,3-b]pyridin-6-yl)-1H-1,2,4-triazole-5-carboxamide]", "IC50": "0.1 to 1"},
      {"compound": "Cc1ccccc1-c1cc2ccc(NC(=O)c3ccnn3C)nc2[nH]1", "note": "[Example 1, 1-Methyl-N-(2-(o-tolyl)-1H-pyrrolo[2,3-b]pyridin-6-yl)-1H-pyrazole-5-carboxamide]", "IC50": "< 0.1"},
      {"compound": "Cn1cnnc1C(=O)Nc1ccc2cc(-c3ccccc3C(F)(F)F)[nH]c2n1", "note": "[Example 1/21, 4-Methyl-N-(2-(2-(trifluoromethyl)phenyl)-1H-pyrrolo[2,3-b]pyridin-6-yl)-4H-1,2,4-triazole-3-carboxamide]", "IC50": "0.1 to 1"}
    ]}
  ]
}
